What all share (assay type): cell-based, Human cytomegalovirus (HCMV)
The test system of data set [1] is HCMV infection of ARPE19 epithelial cells. Briefly: Peptide blocking assay, infection of ARPE19 cells (percent GFP or IE positive cells). The following applies: short peptides 150 uM preincubated with TB40E, ARPE19, MOI=2.0, 2 dpi. On the procedure: (A) Different amounts of peptide 1 were preincubated with TB40E-GFP virus and the mixture applied to ARPE19. Viral DNA levels were quantified by qPCR. (B) The results in (A) are presented as the relative amount of viral DNA relative to the DMSO control. (C) TB40E-GFP virus was preincubated with peptide 1 (100 μg/ml), or DMSO, followed by infection of ARPE19 cells (MOI=2.0). Cells were imaged for GFP expression at 2 dpi (D2) and 7 dpi (D7). (D) TB40E-GFP or BADrUL131-GFP virus, both expressing PC, were preincubated with peptide 1 (100 μg/ml), or DMSO prior to infection of ARPE19 cells (MOI=2.0). Cells were fixed and imaged for GFP at 2 dpi. All data represent the mean of n=3 experiments+/−SD. (E) Culture media supernatants from (C) were harvested on the indicated dpi and assayed for infectious virus by plaque assay. Values indicate the mean percent infected cells of 3 independent experiments±SD. ****p<0.0001.
FIG. 9. […] TB40E-GFP encoding the viral PC or AD169 lacking PC were preincubated with peptide 1 (100 μg/ml) and then infected on ARPE19 epithelial cells or HEL fibroblasts (MOI=2.0). Cells were fixed, permeabilized, stained for DNA, immunostained for anti-immediate early protein (IE) and imaged. […] Values indicate the mean percentage of infected cells of n=3 experiments±SD. **p<0.01; ***p<0.001.
FIG. 11. Each of the short peptides (aa sequences listed in Table 4; 150 uM), Peptide 1 (32.6 μM), or DMSO alone was preincubated with TB40E virus, followed by infection of ARPE19 cell lines (MOI=2.0). Cells were fixed and imaged for GFP and DNA at 2 dpi. Quantitation data indicating the percent GFP positive cells.
Live cell images: Phase and GFP signal images were captured on a Zeiss microscope (Zeiss AxioObserver Z1) at 10× magnification. Fixed cell images: cells were washed with PBS (Life Technologies) and fixed with 4% formalin in PBS (Sigma). DNA was stained with Hoechst 33342 dye (Life Technologies). The fixed cells were imaged using an Image Xpress Micro (IXM, Molecular Devices) at 4× magnification. Images were analyzed with MetaXpress imaging software (Molecular Devices) to determine the total cells per well and the percentage of infected cells (GFP positive) in each well. For IE immunostaining: fixed cells were permeabilized with 0.2% Triton X-100 (Sigma) in PBS. Blocking was performed with 1% BSA (Calbiochem, 2930) in PBS with 0.3M glycine (Sigma). Cells were then incubated in antibody targeting the major IE proteins (IE, EMD Millipore, MAB8131) diluted in 1% BSA in PBS. Cells were then incubated in secondary antibody (Texas Red-conjugated goat anti-mouse IgG2A, Southern Biotech, 1080-07) in PBS containing 1% BSA.
At 2 dpi with HCMV TB40E-GFP virus at the indicated MOI, ARPE19 cells were fixed with 4% formaldehyde and nuclei stained with Hoechst 33342. ARPE19 cells were imaged on an automated IXM scanning microscope. Numbers of infected cells were determined by calculating the percent GFP positive cells using MetaXpress software.
The noted synthetic peptides (100 ug/ml each or as described) were mixed with TB40E-GFP virus (1.2×10^6 PFU) and incubated at 37° C. for 2 h by rocking. The resulting samples were then subjected to the virus binding or infection assay.

Data set [2] has as its system TB40E-GFP entry into ARPE19 cells. Briefly: Cell-internalized virus assay in shRNA transduced ARPE19 cells. The following applies: shRNA transduced ARPE19, TB40E-GFP MOI of 2.0, on ice 1 h then 37° C. for 2 h. How it is done:
In parallel to the virus binding assay, a subset of plates were then shifted to 37° C. for 2 h to allow virus entry. […] After 10 cold PBS washes, internalized viral DNA levels were quantified by qPCR.
To determine whether human OR14I1 and DMBT1 are required for optimal binding of HCMV TB40E-GFP to cells, shPDGFRA, shOR14I1 and shDMBT1 transduced ARPE19 cells were infected with TB40E-GFP at an MOI of 2.0 on ice for 1 h. The cells were washed ten times with cold PBS, and viral DNA associated with the cells was quantified by qPCR. As shown in FIGS. 3A-B, OR14I1 and DMBT1 are required for optimal binding of HCMV TB40E-GFP to cells. In addition, shPDGFRA, shDMBT1 and shOR14I1 transduced ARPE19 cells were infected with TB40E-GFP at an MOI of 2.0 on ice for 1 h. The cells were then shifted to 37° C. for 2 h to allow the virus entry. […] After 10 cold PBS washes, internalized viral DNA levels were quantified by qPCR.

In data set [3] the test system is HCMV Ad169 infection of HEL fibroblasts. Briefly: shRNA knockdown HEL fibroblasts infected with Ad169. The following applies: MOI=1.0, 48 hpi. On the procedure:
(§1) Each shRNA was cloned into the pLKO.1-blast (Addgene) lentiviral vector followed by viral packing and multiple rounds of amplification in 293T cells. Essentially, the pLKO.1-blast constructs and packaging plasmids were co-transfected into 293T cells with the resulting supernatant harvested at 36 h. Lentiviruses were recovered by ultracentrifugation for 2 h at 28,000 rpm in a Beckman SW28 rotor and resuspensed in DMEM. The lentiviruses were used to transduce the ARPE19 or HEL cells to generate shRNA knock down cells. Populations of stable cells were selected with blasticidin (Invitrogen, 10 μg/ml) for 1 week.
(§2) The role of these proteins in fibroblast cell-type specific tropism in HCMV infection was also evaluated. The sgRNA knock out HEL-cas9 fibroblast pools were infected with HCMV Ad169 virus at MOI=3, and images were taken 48 hpi. […] HCMV infection resistance was also evaluated after knockdown using shRNA, in epithelial cells. The shOR14I1, shDMBT1 or shPDGFRA shRNA knock down ARPE19 cells were infected with TB40E-GFP virus at MOI=0.1, and images were taken 48 hpi. […] Actin is included as a loading control. Resistance to CMV infection was also evaluated in shPDGFRA, shOR14I1 or shDMBT1 knockdown HEL fibroblasts. Fibroblasts were infected with Ad169 at M01=1.0, and images were taken 48 hpi. […] Western blotting was used to confirm the depletion of PDGFRA and OR14I1 in the cells used in the experiments shown in FIG. 2H; the results are shown in FIG. 2I.

Data set [4] relates to TB40E-GFP infection of ARPE19 cells. As to the kind of experiment: shRNA knock down ARPE19 cells infected with TB40E-GFP. The following applies: for percentage of GFP positive cells (flow cytometry): shRNA knock down ARPE19, TB40E-GFP, 48 hpi; for resistance to TB40E-GFP infection (GFP images): shRNA knock down ARPE19 cells, MOI=0.1, 48 hpi. How it is done:
as §1
48 h after HCMV TB40E-GFP infection, ARPE19 cells were then treated with cell dissociation buffer (Gibco) and incubated at 37° C. for 10 min. Samples were then washed three times with cold buffer and fixed with cold 2% paraformadehyde in PBS. Cells were pelleted and washed and resuspended in washing buffer (0.1% tween-20 in PBS). Finally, the cells were resuspended in staining buffer (1% BSA, 0.1% sodium azide in HBSS) after pelleting again and immunofluorescent cells analyzed using a MACSQUANT analyzer 10 (Miltenyi Biotec) using blue laser 488 nm and filter 525/50 nm. Results were analyzed using FLOWJO V9.9 image analysis software.
as §2
(In general: In flow cytometry, cells or beads pass a laser one at a time.)

Data set [5] shares this test system. As to the kind of experiment: cAMP/PKA signaling pathway modulation, TB40E-GFP infection. The following applies: H-89 20 μM, SQ22536 150 μM, FSK 20 μM, 2 h prior to infection, MOI=4.0, 48 hpi. How it is done: FIGS. 7A-C. HCMV receptor engagement and cAMP/PKA signaling. ARPE19 or OR14I1 knock down cells were pretreated with phosphokinase A (PKA) inhibitor H-89 (20 μM), adenylate cyclase antagonist, SQ22536 (150 μM), or adenylate cyclase activator, forskolin (FSK; 20 μM) for 2 h prior to TB40E-GFP infection (MOI=4.0). Cells were fixed at 48 hpi and images taken.
H-89, SQ22536 and Foskolin were purchased from Sigma-Aldrich Chemicals. Wild type ARPE19 or ARPE19 cells expressing the indicated shRNAs were treated with protein kinase A (PKA) inhibitor H-89 (20 μM), adenylate cyclase antagonist, SQ22536 (150 μM), or adenylate cyclase activator, forskolin (FSK; 20 μM) for 2 h prior to infection with TB40E-GFP (MOI=2.0). After 2 h, the medium was then replaced by the standard medium that also contained the noted small molecules. Images were taken at 2 dpi.
HCMV receptor engagement and cAMP/PKA signaling was also evaluated. ARPE19 or OR14I1 knock down cells were pretreated with phosphokinase A (PKA) inhibitor H-89 (20 μM), adenylate cyclase antagonist, SQ22536 (150 μM), or adenylate cyclase activator, forskolin (FSK; 20 μM) for 2 h prior to TB40E-GFP infection (MOI=4.0).

For the compound “LMEFSGIWELQVL (OR14I1 peptide) [Peptide 12-24]”, in data set [1], the “ability to inhibit HCMV infection (percent GFP positive cells)” value was “best activity”.
In the case of “GGAGTCAACTGTAGCAGAAGG (expressed or natural sequence) [shDMBT1, shRNA targeting DMBT1, in pLKO.1-blast lentiviral vector]”, the “internalized viral DNA, viral load as compared to control-infected cells” value in data set [2] is “about 50%”. In data set [3], the “resistance to Ad169 infection” value is given as “not”. Also, in data set [4], the “percentage of GFP positive cells (flow cytometry)” value (from here on “percentage of GFP positive cells”) was “significant decrease in GFP-expressing cells” and the “resistance to TB40E-GFP infection (GFP images)” value (shortened to “resistance … (GFP images)”) was “resistance was seen”.
With LLMEFSGIWELQV (OR14I1 peptide 11-23aa), the “ability to inhibit HCMV infection (percent GFP positive cells)” value in data set [1] was “best activity”.
Consider “GCCTTTGTACCTCTAGGAATG (expressed or natural sequence) [shPDGFRA, shRNA targeting PDGFRA, in pLKO.1-blast lentiviral vector, reference compound]”, for which the “internalized viral DNA, viral load as compared to control-infected cells” value in data set [2] is recorded as “about 50%”. Also, the “resistance to Ad169 infection” value in data set [3] is reported as “resistant to infection”. In data set [4], the “percentage of GFP positive cells” value is “significant decrease in GFP-expressing cells” and the “resistance … (GFP images)” value is “resistance was seen”.
“GCAGAAGCTCCATCTCTTATC (expressed or natural sequence) [shOR14I1, shRNA targeting OR14I1, in pLKO.1-blast lentiviral vector]”: the “internalized viral DNA, viral load as compared to control-infected cells” value in data set [2] is “about 50%”. In addition, in data set [3], the “resistance to Ad169 infection” value was “not”. Also, in data set [4], the “percentage of GFP positive cells” value is “significant decrease in GFP-expressing cells” and the “resistance … (GFP images)” value was “resistance was seen”.
As to `O=S(=O)(NCCNC/C=C/c1ccc(Br)cc1)c1cccc2cnccc12` [Peptide H-89], the “infectivity of TB40E-GFP in ARPE19 epithelial cells” value in data set [5] is recorded as “reduced infectivity significantly”.
On the same count and under the same terms, with `Nc1ncnc2c1ncn2C1CCCO1` (stereo not drawn) [SQ22536, 9-(Tetrahydro-2-furanyl)-9H-purin-6-amine] the entry was “reduced infectivity significantly”.
Regarding EFLLMEFSGIWEL (OR14I1 peptide 9-21aa), in data set [1], the “ability to inhibit HCMV infection (percent GFP positive cells)” value is reported as “some inhibition”.
Take FLLMEFSGIWELQ (OR14I1 peptide 10-22aa): in data set [1], the “ability to inhibit HCMV infection (percent GFP positive cells)” value is reported as “best activity”.

The record behind these values is patent US12268901B2, “Targeting cell tropism receptors to inhibit cytomegalovirus infection” (priority 2017, dated 2025).
